In patent US20180188270A1, “DIAGNOSTIC TEST FOR ALZHEIMER'S DISEASE BASED ON IDENTIFICATION OF A PROTEOLYTIC PATHWAY” (Health Research, Inc., priority 2015, published 2018):
“And” between values parts separate entries of the source, which are not always exact repeats. Equal entries are not always repeated. “Also recorded” adds a separate entry of the source.

How the values were obtained:
Type in all cases: in vivo, mouse
[1] = test system: plasma Aβ1-42; assay: Plasma Aβ1-42 concentration in mice by ELISA; conditions: WT mice, EP 2.5 mg/kg i.p. daily 5 days
Procedure: Animal studies. All animal studies were performed in accordance with protocols approved by the Institutional Animal Care and Use Committee at Roswell Park Cancer Institute. Male mice at 7-8 weeks of age were used, including wild type (WT) mice (C57BL/6), and mice deficient in FXII (C57BL/6-FXII^−/−) or FVII (C57BL/6-FVII^tTA/tTA). WT C57BL/6 mice were purchased from Taconic. C57BL/6-FXII^−/− mice and C57BL/6-FVII^tTA/tTA mice were bred in our own facility and genotyped. […] CCl4 was dissolved in corn oil, whereas all other substances were dissolved in PBS. The vehicle or the test substance was given to mice in 0.1 ml volume per 20 g body weight. Blood was collected from the mice at specific times by cardiac puncture at the time of sacrifice by carbon dioxide, and heart, liver and kidney were also collected from some of the mice. Blood was collected into K3 EDTA-containing tubes (Multivette 600 from Sarstedt), unless specified otherwise. All blood samples were promptly centrifuged to obtain plasma samples.

[2] = test system: plasma PEPD; assay: Plasma PEPD concentration in mice by ELISA; conditions: for average plasma level of total PEPD, higher than with hPEPD alone: hPEPD 0.2 mg/kg 1 h after last EP dose
Procedure: Animal studies. All animal studies were performed in accordance with protocols approved by the Institutional Animal Care and Use Committee at Roswell Park Cancer Institute. Male mice at 7-8 weeks of age were used, including wild type (WT) mice (C57BL/6), and mice deficient in FXII (C57BL/6-FXII^−/−) or FVII (C57BL/6-FVII^tTA/tTA). WT C57BL/6 mice were purchased from Taconic. C57BL/6-FXII^−/− mice and C57BL/6-FVII^tTA/tTA mice were bred in our own facility and genotyped. The breeders were kindly provided by Dr. Francis J. Castellino at University of Notre Dame. […] CCl4 was dissolved in corn oil, whereas all other substances were dissolved in PBS. The vehicle or the test substance was given to mice in 0.1 ml volume per 20 g body weight. Blood was collected from the mice at specific times by cardiac puncture at the time of sacrifice by carbon dioxide, and heart, liver and kidney were also collected from some of the mice. Blood was collected into K3 EDTA-containing tubes (Multivette 600 from Sarstedt), unless specified otherwise. All blood samples were promptly centrifuged to obtain plasma samples.
Measurement of plasma levels of PEPD, SRC, Aβ1-42 and FI. […] The plates were washed three times with phosphate buffered saline tween-20 (PBST) and the coated wells were blocked by incubation with 200 μl/well of 1% BSA in PBS for at least 2 h at RT. After another round of wash with PBST, the plates were incubated with appropriately diluted Aβ1-42 standard, SRC standard or plasma samples (100 μl/well) for 2 h at RT. The plates were then washed with PBST and incubated with an anti-Aβ1-42 rabbit polyclonal antibody (sc-9129) or anti-SRC rabbit monoclonal antibody (2123) at 100 μl/well for 2 h at RT. The plates were washed again with PBST, and each well was incubated with a goat anti-rabbit IgG-HRP conjugate (100 μl) for 1 h at RT. After yet another round of wash with PBST, each well was incubated with 100 μl of HRP substrate 3,3′,5,5′-tetramethylbenzedine (Cell Signaling, 7004). Upon adequate color development, 100 μl of stop solution (Cell Signaling, 7002) was added to each well, and absorbance at 450 nm was promptly recorded by a microtiter plate reader. Plasma FI concentration was determined using an assay kit (400-374-130050) from GenWay Biotech, following the manufacturer's instruction.

[3] = test system: plasma coagulation factors FXII, PK, HMWK, FXI, FIX, FX, FII, FI and FVII; assay: Changes in plasma coagulation factors in mice by IB (FI by ELISA)
Procedure: Animal studies. […] Male mice at 7-8 weeks of age were used, including wild type (WT) mice (C57BL/6), and mice deficient in FXII (C57BL/6-FXII^−/−) or FVII (C57BL/6-FVII^tTA/tTA). WT C57BL/6 mice were purchased from Taconic. C57BL/6-FXII^−/− mice and C57BL/6-FVII^tTA/tTA mice were bred in our own facility and genotyped. […] CCl4 was dissolved in corn oil, whereas all other substances were dissolved in PBS. The vehicle or the test substance was given to mice in 0.1 ml volume per 20 g body weight. Blood was collected from the mice at specific times by cardiac puncture at the time of sacrifice by carbon dioxide, and heart, liver and kidney were also collected from some of the mice. Blood was collected into K3 EDTA-containing tubes (Multivette 600 from Sarstedt), unless specified otherwise. All blood samples were promptly centrifuged to obtain plasma samples.
The plates were washed three times with phosphate buffered saline tween-20 (PBST) and the coated wells were blocked by incubation with 200 μl/well of 1% BSA in PBS for at least 2 h at RT. […] The plates were washed again with PBST, and each well was incubated with a goat anti-rabbit IgG-HRP conjugate (100 μl) for 1 h at RT. After yet another round of wash with PBST, each well was incubated with 100 μl of HRP substrate 3,3′,5,5′-tetramethylbenzedine (Cell Signaling, 7004). Upon adequate color development, 100 μl of stop solution (Cell Signaling, 7002) was added to each well, and absorbance at 450 nm was promptly recorded by a microtiter plate reader. Plasma FI concentration was determined using an assay kit (400-374-130050) from GenWay Biotech, following the manufacturer's instruction.
IB. Tissue samples were mixed with RIPA buffer (25 mM Tris-HCl, pH 7.6, 150 mM NaCl, 1% Nonidet P-40, 1% sodium deoxycholate, 0.1% SDS), supplemented with 2 mM phenylmethanesulfonyl fluoride, a proteinase inhibitor mix (Roche Applied Science) and phosphatase inhibitor Cocktail 2 (Sigma-Aldrich). Tissue samples were stroked in a Dounce homogenizer, and the homogenates were cleared by centrifugation at 12,000×g for 15 min at 4° C. Protein concentrations in all samples were measured by the BCA assay kit. Plasma samples were used without further processing (20 μl per sample). Each sample was mixed with 4× loading dye, heated for 5 min at 95° C. and then resolved by SDS-PAGE (8-12.5%). […] The proteins were transferred to polyvinylidene fluoride membrane, probed with specific antibodies and detected using the ECL Plus Kit (Amersham) or the SuperSignal West Pico Kit (Thermo Scientific).

[4] = test system: total plasma Aβ1-40 and Aβ1-42; assay: Total plasma level of Aβ1-40 and Aβ1-42 in J20 AD mice and WT mice by ELISA; conditions: for increase in total plasma levels of Aβ1-40 and Aβ1-42: EP 0.5 mg/kg i.p. daily 5 days
Excerpt: (§1) B6.Cg-Tg(PDGFB-APPSwlnd) 20 Lms/2 JMjax mice, also known as J20 mice, were purchased from Jackson Laboratory. J20 mice express a mutant form of the human Aβ precursor protein (APP) bearing both the Swedish (K670N/M671L) and the Indiana (V717F) mutations (APPSwlnd) (Mucke et al., J Neurosci, 2000, 20, 4050-4058). Neural expression of the transgenic insert is directed by the human platelet-derived growth factor beta polypeptide (PDGFB) promoter. J20 mice in C57BL/6 background (male hemizygotes) were bred to wild type (WT) female C57BL/6J mice (also purchased from Jackson Laboratory). F1 mice were genotyped by PCR at weaning to identify the hemizygotes and the non-transgenic littermates. Mice at age of 1 month and 3 months were treated once daily with vehicle or EP (0.5 mg/kg) i.p for 5 days. EP was given in PBS (0.1 ml per 20 g body weight). Blood was collected from the mice at 6 h after the last PBS/EP dose by cardiac puncture at the time of sacrifice by carbon dioxide. Blood was collected into K3 EDTA-containing tubes (Multivette 600 from Sarstedt).
Total plasma levels of Aβ1-40 and Aβ1-42 were measured by ELISA. Briefly, 96-well ELISA plates were coated with an anti-Aβ1-42 monoclonal antibody (sc-374527) at 0.25 μg/100 μl/well at 4° C. overnight. The plates were washed three times with phosphate buffered saline tween-20 (PBST) and the coated wells were blocked by incubation with 200 μl/well of 1% BSA in PBS for at least 2 h at RT. […] The plates were then washed with PBST and incubated with an anti-Aβ1-42 rabbit polyclonal antibody (sc-9129) at 100 μl/well for 2 h at RT. The plates were washed again with PBST, and each well was incubated with a goat anti-rabbit IgG-HRP conjugate (100 μl) for 1 h at RT. After yet another round of wash with PBST, each well was incubated with 100 μl of HRP substrate 3,3′,5,5′-tetramethylbenzedine (Cell Signaling, 7004). Upon adequate color development, 100 μl of stop solution (Cell Signaling, 7002) was added to each well, and absorbance at 450 nm was promptly recorded by a microtiter plate reader.

[5] = test system: plasma hAβ1-40; assay: Plasma hAβ1-40 level in mice by ELISA; conditions: EP 0.5 mg/kg i.p. daily 5 days, hAβ1-40 40 μg/kg 1 h after fifth dose, 6 h
Procedure: Male C57BL/6 mice (7-8 weeks of age) were purchased from Taconic and were treated with vehicle (PBS) and EP (0.5 mg/kg) i.p. once daily for 5 days. […] Blood was collected into K3 EDTA-containing tubes (Multivette 600 from Sarstedt). […] The plates were washed three times with phosphate buffered saline with tween-20 (PBST) and the coated wells were blocked by incubation with 200 μl/well of 1% BSA in PBS for at least 2 h at room temperature (RT). […] The plates were washed again with PBST, and each well was incubated with a goat anti-rabbit IgG-HRP conjugate (100 μl) for 1 h at RT.

[6] = test system: coagulation factors FX, FII and FVII; assay: Coagulation proteases in J20 AD mice by western blotting; conditions: AD mice at 1 month and 3 months of age, EP 0.5 mg/kg i.p. daily 5 days
Excerpt: as §1

[7] = WT mice, EP 2.5 mg/kg i.p. daily 5 days
[8] = WT mice, EP 2.5 mg/kg daily 5 days, hPEPD 0.2 mg/kg

enoxaparin [EP]
average plasma level of endogenous mAβ1-42, higher in EP-treated mice than in control mice [1]: 1.7 fold
plasma level of total Aβ1-42, increase after EP plus hAβ1-42 ([1]; hAβ1-42 40 μg/kg 1 h after last dose, 6 h): 406.0 fold
average plasma level of total PEPD in WT mice, lower than in FXII−/− mice ([2]; EP pretreatment, 6 h after hPEPD 0.2 mg/kg i.p.): 14.6%
effect of EP on plasma PEPD level ([2]; FXII−/− mice, EP 2.5 mg/kg i.p. daily 5 days): did not show a significant effect
plasma level of mPEPD, increase by EP [2, 7]: 2.0 fold and 2.1 fold
average plasma level of total PEPD, higher than with hPEPD alone ([2]; WT mice, EP 2.5 mg/kg i.p. daily 5 days, 1 h after hPEPD): 35.2 fold
average plasma level of total PEPD, higher than with hPEPD alone ([2]; WT mice, EP 2.5 mg/kg i.p. daily 5 days, 24 h after hPEPD): 63.8 fold
average plasma level of total PEPD ([2]; WT mice, EP pretreatment, 6 h after hPEPD 0.2 mg/kg i.p.): 19.7 nM
reduction of hPEPD dose allowed by EP without decreasing its plasma concentration ([2]; mice, plasma concentration required for inhibition of ERBB2-driven tumors): at least 50 fold
EP inhibition of hPEPD-induced slight activation of FX, FII and FVII ([3]; FXII−/− mice): largely inhibited by EP
EP inhibition of activation of FX, FII and FVII ([3]; WT mice treated with hAβ1-42 40 μg/kg, EP 2.5 mg/kg daily 5 days): greatly inhibited the activation of FX, FII and FVII
EP prevention of hPEPD-induced activation of FXII, PK, HMWK, FXI and FIX [3, 8]: failed to prevent hPEPD from activating FXII, PK, HMWK, FXI and FIX
EP prevention of hPEPD-induced activation or cleavage of FX, FII, FI and FVII [3, 8]: prevented hPEPD from causing activation or cleavage of FX, FII, FI and FVII
effect of EP itself on plasma coagulation factors [3, 7]: had no effect on any of the FXII-FVII pathway factors measured; also recorded: had no effect on these factors
ratio of EP-induced increase in total plasma levels of Aβ1-40 and Aβ1-42 in AD mice to WT mice ([4]; 1 month of age): 8.71-9.32
ratio of EP-induced increase in total plasma levels of Aβ1-40 and Aβ1-42 in AD mice to WT mice ([4]; 3 month of age): 47.53-56.85
increase in total plasma levels of Aβ1-40 and Aβ1-42 ([4]; AD mice, 1 month of age): about 2.3 fold
increase in total plasma levels of Aβ1-40 and Aβ1-42 ([4]; AD mice, 3 month of age): 3.6-4.2 fold
increase in total plasma levels of Aβ1-40 and Aβ1-42 ([4]; WT mice at both 1 month and 3 months of age): about 1.6 fold
elevation of average plasma hAβ1-40 concentration by EP pretreatment [5]: 77.4 fold
EP effect on activation of FX, FII and FVII [6]: inhibits the activation of FX, FII and FVII
